[5FU] = 5-fluoro-uracil base (5-fluoro-2'-deoxyuridine)
Assays:
[1] = tested on: PC-3 cell line (prostate cancer cell); assay: Cell apoptosis (XTT method) in PC-3 cells; format: cell-based; settings: for IC50: PC3 (Prostate Cancer Cells), cultured six days, XTT
Protocol: (§1) Each oligonucleotide was diluted in 10 mM Tris-HCl (pH 7.4) to a final concentration of 100 μM. The diluted solution was placed at 94° C. for 5 minutes and then quickly placed them on ice and left therein for 5 minutes. The resultant was added with 2M KCl to a final concentration of 50 mM, left at 60° C. for 3 hours and then slowly cooled down to room temperature.
(§2) One day before the experiment, 190 μL of culture, wherein PC-3 cell line(prostate cancer cell) was suspended at a concentration of 10^3-10^4/mL, was inoculated respectively into each well of a 96 well plate. The next day, 10 μL of the oligonucleotide solution prepared in Example 1 was added and cultured for six days. Six days after the inoculation, cell apoptosis rate measured by means of XTT method [JBC 1999, 26369].

[2] = tested on: MCF7-DX (Breast Cancer Cells), a drug-resistance cell line; assay: Cell apoptosis (XTT method) in MCF7-DX cells; format: cell-based
Protocol: [Worded in the source for another cell line; this cell line is reported under the same test.] as §1, §2
(§3) As a result, it was confirmed that the cell apoptosis rate of APT-2001, APT-2002 and APT-2003 (the novel modified oligonucleotides of the present invention), was 3-10 times higher than those of APT-4001 (positive control) and APT-4002 (negative control) as measured in terms of IC50 or IC90 (FIG. 2). […] In addition, the cell apoptotic activity of the oligonucleotides, prepared according to the present invention over the K562 CML (chronic myeloid leukemia), MV-4-11 AML (acute leukemia) cells, were also verified.

[3] = tested on: MCF7 (Breast Cancer Cells); assay: Cell apoptosis (XTT method) in MCF7 cells; format: cell-based
Protocol: [Worded in the source for another cell line; this cell line is reported under the same test.] as §1, §2, §3

[4] = tested on: HCT116 (Rectal Cancer Cells); assay: Cell apoptosis (XTT method) in HCT116 cells; format: cell-based
Protocol: [Worded in the source for another cell line; this cell line is reported under the same test.] as §1, §2, §3

[5] = tested on: A549 (Non-small Cell Carcinoma Cells); assay: Cell apoptosis (XTT method) in A549 cells; format: cell-based
[6] = tested on: A498 (Kidney Cancer Cells); assay: Cell apoptosis (XTT method) in A498 cells; format: cell-based
mice = assay: Toxicity test in mice; format: in vivo; settings: 1 g/kg administered, 10 mice/group, observed for the next 7 days
Protocol: Toxicity test was performed on the active ingredient of the present invention as follows.
Each of APT-2001, APT-2002 and APT-2003 was dissolved in dimethylsulfoxide (DMSO), diluted with water and then administered to mice (10 mice/group) in the amount of 1 g/kg.

Substance	IC50 [1] [µM]	cell apoptotic activity compared to APT-4001 (positive control) ([1]; even at a smaller amount than APT-4001, FIG. 3)	IC50 [2] [µM]	IC50 [3] [µM]	IC50 [4] [µM]	IC50 [5] [µM]	IC50 [6] [µM]	survival of mice (mice)
APT-2002: NNNGGTGGTGGTGGTTGTGGTGGTGGTGG (SEQ. ID. NO. 2); N=5-F-deoxyuridine, G=2-deoxy-guanosine, H=thymidine (DNA UUUGGTGGTGGTGGTTGTGGTGGTGGTGG; DNA, [5FU] at 1, 2, 3, backbone not given here)	2.6	superior cell apoptotic activity	0.6	8.9	2.1	5.2	< 0.1	all mice survived
APT-4002: Negative control, TTTCCTCCTCCTCCTTCTCCTCCTCCTCC (SEQ. ID. NO. 49); thymidine, 2′-deoxycytidine (DNA, backbone not given here) [reference compound]	> 50		> 50		> 50	> 50	> 50	

From patent publication US9056886B2, “Guanosine-rich modified oligonucleotides and antiproliferative activity thereof” (APTABIO THERAPEUTICS INC., priority 2009, dated 2015)
